Series [1] concerns MH 134 cell (ascitic liver cancer cell) tumor-bearing mice. Particulars: female, C3H/He, mouse, in vivo, po. Here is the method: A mouse tumor-bearing cell (MH 134 cell: ascitic liver cancer cell) was intraperitoneally administered to mice (C3H/He line, 5-week-old, female) at a dose of 1×10^6 cells, and they were reared for 0 to 14 days. Ten days after the intraperitoneal administration of tumor-bearing cells, 50 μl of 0.12 M δ-aminolevulinic acid hydrochloride, δ-aminolevulinic acid methyl ester hydrochloride, δ-aminolevulinic acid hexyl ester hydrochloride or δ-aminolevulinic acid phosphate was orally administered to the mice to which the tumor-bearing cells had been intraperitoneally administered. From 10 to 20 μl of blood samples were collected from the orally administered mice 0, 0.25, 0.5, 2, 3, 4 or 6 hours thereafter. The thus collected blood was centrifuged at 2000×g for 5 minutes, 300 μl of ethyl acetate/acetic acid (2/1, v/v) was added to 5 μl of the supernatant (plasma), followed by mixing, 300 μl of 0.6 M NaOH solution was further added thereto, followed by mixing, and the NaOH layer was collected. To the remaining organic layer, 300 μl of 0.5 M aqueous hydrochloric acid solution was added, and the aqueous hydrochloric acid solution layer was collected. Fluorescence intensities of the NaOH layer and aqueous hydrochloric acid solution layer were measured (hydrochloric acid layer: excitation wavelength 400 nm, fluorescence wavelength 600 nm, NaOH layer: excitation wavelength 400 nm, fluorescence wavelength 619 nm), and respective concentrations were calculated from the standard solutions. In addition, δ-aminolevulinic acid hydrochloride, δ-aminolevulinic acid methyl ester hydrochloride, δ-aminolevulinic acid hexyl ester hydrochloride or δ-aminolevulinic acid phosphate was also orally administered (0.12 M, 50 μl) to normal mice as the control, and the same treatment was carried out.

For series [2], the system named is normal mice. The experiment in a line: Blood protoporphyrin IX and uroporphyrin by fluorescence detection after oral administration, normal mice (Example 1). Type of series: in vivo. Particulars: 2 hours after oral 50 μl of 0.12 M.
The subject of series [3] is MH 134 cell tumor-bearing mice. The series can be described thus: Uroporphyrin I and III in blood by HPLC, tumor-bearing mice (Example 2). Particulars: 2 hours after oral 50 μl of 0.12 M. Format: in vivo, mice (C3H/He line). Here is the method: (§1) The samples were measured by HPLC (regarding the analyzing conditions, a fluorescence detector: excitation wavelength 406 nm, fluorescence wavelength 610 nm was used, a solution consisting of 12.5% acetonitrile, 1 M ammonium acetate and 0.27 mM EDTA, pH 5.15 (adjusted with acetic acid), was used as the eluting solution, ODS-AGtypeCAPCELLPAK, 4.6 mmφ×250 mm, particle diameter 5 μm (manufactured by Shiseido) was used as the column, and the measurement was carried out at a flow rate of 1.0 ml/min and at a temperature of 25° C.), and respective concentrations were calculated from the peak areas of standard solutions.

For series [4], the system named is MH 134 cell tumor-bearing mice. The series can be described thus: Uroporphyrin and coproporphyrin in feces by HPLC, tumor-bearing mice (Example 4). Format: in vivo, mice (C3H/He line). The following applies: 2 hours after oral 50 μl of 0.12 M. Here is the method:
To 10 mg in wet weight portion of the thus collected feces, 100 μl of an ethyl acetate-acetic acid mixture liquid (4/1, v/v) was added, the mixture was homogenized and then filtered using a filter paper, 10 μl of the filtrate was measured by HPLC (regarding the analyzing conditions, a fluorescence detector: excitation wavelength 406 nm, fluorescence wavelength 619 nm was used, a solution A: 80% acetonitrile/7% acetic acid/50 mM ammonium acetate mixture liquid and a solution B: 10% acetonitrile/4% acetic acid/50 mM ammonium acetate mixture liquid were used as the eluting solutions and subjected to a linear gradient of A/B (20/80)-A/B (90/10) for 30 minutes and then to the holding with solution A for 20 minutes, ODS-AGtypeCAPCELLPAK, 4.6 mmφ×250 mm, particle diameter 5 μm (manufactured by Shiseido) was used as the column, and the measurement was carried out at a flow rate of 1.0 ml/min and at a temperature of 25° C.), and respective concentrations were calculated from the peak areas of standard solutions.

Series [5] relates to normal mice. The experiment in a line: Uroporphyrin I and III in urine by HPLC, normal mice (Example 3). Type of series: in vivo. Particulars: 2 hours after oral 50 μl of 0.12 M. Here is the method:
as §1, with “The thus collected” for “The”, “619” for “610”, “the” for “the peak areas of”

Series [6] has as its system MH 134 cell tumor-bearing mice. The experiment in a line: Uroporphyrin I and III in urine by HPLC, tumor-bearing mice (Example 3). Type of series: in vivo, mice (C3H/He line). The protocol: as §1, with “The thus collected” for “The”, “619” for “610”, “the” for “the peak areas of”
Series [7] deals with human cervical cancer cell (HeLa cell) tumor-bearing nude mice. The experiment in a line: Uroporphyrin and coproporphyrin in urine by HPLC, nude mice bearing human cervical cancer cells (Example 5). Type of series: in vivo, nude mice (BALB/cA-nu). The protocol:
(§2) The thus collected urine was measured by HPLC (regarding the analyzing conditions, a fluorescence detector: excitation wavelength 406 nm, fluorescence wavelength 619 nm was used,
(§3) A: 80% acetonitrile/7% acetic acid/50 mM ammonium acetate and
(§4) B: 10% acetonitrile/4% acetic acid/50 mM ammonium acetate were used as the eluting solutions and subjected to a linear gradient of A/B (20/80)-A/B (90/10) for 13 minutes and then to elution with solution A for 10 minutes, ODS-AGtypeCAPCELLPAK, 4.6 mm×250 mm, particle diameter 5 μm (manufactured by Shiseido) was used as the column, and the measurement was carried out at a flow rate of 1.0 ml/min and at a temperature of 25° C.), and each concentration was calculated from the standard solutions. Further, the urine concentration was corrected by measuring the amount of creatinine (CRE) in urine, and calculating the amount of porphyrin per CRE.

Series [8] deals with human liver cancer cell (HepG2 cell) tumor-bearing nude mice. The series can be described thus: Uroporphyrin and coproporphyrin in urine by HPLC, nude mice bearing human liver cancer cells (Example 5). Format: in vivo, nude mice (BALB/cA-nu). Here is the method: as §2, §3, §4
Series [9] deals with normal nude mice. The series can be described thus: Uroporphyrin and coproporphyrin in urine by HPLC, normal nude mice (Example 5). Type of series: in vivo. The following applies: 4 hours after oral 50 μl of 0.12 M, corrected per creatinine. Here is the method:
as §2, §3, §4

[10] abbreviates: tumor-bearing mice, 2 hours after oral 50 μl of 0.12 M.
[11] abbreviates: mice given human cervical cancer cells, after administration.
The mark [12] stands for this setting: tumor-bearing mice (human cervical cancer cell), 4 hours after oral 50 μl of 0.12 M, corrected per creatinine.
Setting [13] is: mice given human liver cancer cells, after administration.
Setting [14] is: tumor-bearing mice (human liver cancer cell), 4 hours after oral 50 μl of 0.12 M, corrected per creatinine.

Regarding `CCCCCCOC(=O)CCC(=O)CN.Cl` [δ-aminolevulinic acid hexyl ester hydrochloride], the “time after administration at which concentrations of protoporphyrin IX and uroporphyrin became maximum” value (from here on “time after administration”) in [1] worked out at 2 h. Further, the “uroporphyrin in blood of normal mice” value in series [2] was “hardly detected”.
`Cl.NCC(=O)CCC(=O)O` [δ-aminolevulinic acid hydrochloride]: the “time after administration” value in series [1] is 2 h. Moreover, in series [3], the “Ratio of uroporphyrin I/uroporphyrin III in blood” value worked out at 0.53; the “Uroporphyrin I in blood, after administration” value was found to be 0.2 ng/µL; the “Uroporphyrin III in blood, after administration” value came to 0.38 ng/µL. In series [4], the “Coproporphyrin in feces, after administration” value was 0.21 pmol and the “Uroporphyrin in feces, after administration” value was 1.75 pmol. Besides, in series [5], the “Ratio of uroporphyrin I/uroporphyrin III in urine” value was determined as 0.94; the “Uroporphyrin I in urine, after administration” value was 0.95 ng/µL; the “Uroporphyrin III in urine, after administration” value was found to be 1.01 ng/µL. Moreover, in series [6] (after administration, urine 2 hours), the “amounts of uroporphyrin I and uroporphyrin III in urine, tumor-bearing mice in comparison with normal mice” value was “about 13 times”. In series [6] (setting [10]), the “Ratio of uroporphyrin I/uroporphyrin III in urine” value worked out at 0.54; the “Uroporphyrin I in urine, after administration” value was 11.95 ng/µL; the “Uroporphyrin III in urine, after administration” value was 22.28 ng/µL. Besides, the “uroporphyrin in blood of normal mice” value in [2] is reported as “hardly detected”.
Consider `COC(=O)CCC(=O)CN.Cl` [δ-aminolevulinic acid methyl ester hydrochloride], for which the “time after administration” value in [1] came to 2 h. In addition, the “uroporphyrin in blood of normal mice” value in series [2] is recorded as “hardly detected”.
Turning to `NCC(=O)CCC(=O)O.O=P(O)(O)O` [δ-aminolevulinic acid phosphate], the “time after administration” value in series [1] worked out at 2 h. Further, the “amount of coproporphyrin in urine relative to normal mice” value is recorded as “about 2.7 times” in [7] (setting [11]) and “about 1.5 times” in series [8] (setting [13]). Further, the “amount of uroporphyrin in urine relative to normal mice” value in series [7] (setting [11]) is reported as “about 94 times”; in series [8] (setting [13]), “about 15 times”. Besides, the “Coproporphyrin in urine, after administration” value in series [7] (setting [12]) was found to be 2.66 μmol/g-CRE; in series [8] (setting [14]) it was 1.44 μmol/g-CRE; in series [9], 0.99 μmol/g-CRE. Also, the “Uroporphyrin in urine, after administration” value in series [7] (setting [12]) is 15.1 μmol/g-CRE; in series [8] (setting [14]), 2.47 μmol/g-CRE; in series [9] it was 0.16 μmol/g-CRE. The “uroporphyrin in blood of normal mice” value in [2] is “hardly detected”.
